The text below walks through data of patent US20120121692A1, “COMPOUNDS AND COMPOSITIONS COMPRISING CDK INHIBITORS AND METHODS FOR TREATING CANCER” (SHANDONG UNIVERSITY, priority 2009, published 2012).

One series has as its system HCT116 cells. The series is described as follows: MTT cytotoxicity screening, human colon cancer cell line HCT116. It is filed as cell-based. The note with it: Homo sapiens, HCT-116, 48 hrs incubation, absorbance 490 nm, primary screening, read-out: IC50. Summed up:
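HCT116 cells seeded at 2.5×10^4 cells/ml, treated 24 h later for 48 h with compounds in medium (final DMSO 0.1%-0.001% v/v); dose series 100 μM–1 μM or 10 μM–62.5 nM, primary screen at 100 and 10 μM. Viability read by MTT (4 h, 37° C), formazan dissolved in DMSO, absorbance 490 nm.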

For series [1], the system named is Human Colon Carcinoma HCT116 xenograft. The series is described as follows: In vivo human colon carcinoma HCT116 xenograft test. Also noted: species or system BALB/cASlac-nu mice. The procedure: (E)-3-(2-Chlorophenyl)-1-(2-hydroxy-4,6-dimethoxy-3-(1,2,3,6-tetrahydropyridine-4-yl)phenyl)-2-propylene-1-one hydrochloride, B2, was dissolved in a pyrogen-free, sterile PBS solution containing 1% dimethyl sulfoxide (DMSO). For daily injections, a freshly prepared solution was stored at 4° C. Before injection the B2 solution was warmed up to 37° C. and vigorously agitated in a vortex. B2 was administered through intraperitoneal injection (i.p.), 2.5, or 7.5 mg/kg/d, 20 days.
The positive control animals received 5 mg/kg/d doxorubicin intraperitoneally (i.p.), and the blank group mice received PBS solution containing 1% DMSO i.p., 5 mL/kg/d.
Female BALB/cASlac-nu mice (SLAC LABORATORY ANIMAL, Shanghai), ages 4 to 5 weeks, were used in this procedure. Animals were maintained according to the guidelines established by the National Institutes of Health.
The Human Colon Carcinoma HCT116 were grown in RPMI-1640 medium with 10% fetal calf serum and L-glutamine, and the cells were maintained using standard tissue culture conditions.
For the production of s.c. tumors, 1×10^7 cells in 0.1 mL of medium without serum were inoculated in the right flank of mice. After the tumors were implanted and reached a palpable size, the mice were randomized into control and treatment groups (n=6)
Subcutaneous tumors were measured with caliper, and the weight of the animals recorded at least three times a week. Tumor volume was estimated from caliper measurements of two perpendicular dimensions of the tumor in millimeters using the formula:
Tumor Volume(mm^3)=length(mm)×width(mm)^2/2
Tumor Inhibition Ratio (%)=(the blank group tumor weight average−the treatment group tumor weight average)/the blank group tumor weight average×100
Relative Tumor Volume (RTV)=Vt/V0. V0: the tumor volume measured at the time of randomization; Vt: the tumor volume measured each time during the administration.
Relative Increment Ratio T/C (%)=the treatment group(T) RTV/the blank control group(C) RTV×100. T/C(%)>40: inefficacy; T/C(%)≦40, and P<0.05: utility.

The IC50 is the concentration needed to halve the response being measured.

In the case of `COc1cc(OC)c(C2=CCNCC2)c(O)c1C(=O)/C=C/c1ccccc1Cl` [Compound B2, (E)-3-(2-chlorophenyl)-1-(2-hydroxy-4,6-dimethoxy-3-(1,2,3,6-tetrahydropyridine-4-yl)phenyl)-2-propylene-1-one], the IC50 in the series with HCT116 cells was 100 nM. Moreover, in series [1] (2.5 mg/kg/d × 20 d i.p.), the “% inhibit. (tumor inhibition ratio by tumor weight)” value is 88.2%, the “RTV (relative tumor volume Vt/V0)” value stood at 2.86 ± 0.202, the “TIV (%)” value is reported as 19.0% and the “Tumor wgt.” value is 0.041 ± 0.0093 g. Further, in series [1] (2.5 mg/kg/d × 20 d i.p.), the “Tumor vol. (mm^3) Final” value came out at 121 ± 78.2 mm^3 and the “Tumor vol. (mm^3) Initial” value is given as 53 ± 28.0 mm^3. Moreover, in series [1] (7.5 mg/kg/d × 20 d i.p.), the “% inhibit. (tumor inhibition ratio by tumor weight)” value is given as −25.6%, the “RTV (relative tumor volume Vt/V0)” value was found to be 12.57 ± 0.667, the “TIV (%)” value was determined as 83.3% and the “Tumor wgt.” value is 0.437 ± 0.3105 g. Further, in series [1] (7.5 mg/kg/d × 20 d i.p.), the “Tumor vol. (mm^3) Final” value amounted to 777 ± 459.5 mm^3 and the “Tumor vol. (mm^3) Initial” value is 58 ± 39.7 mm^3. The “optimal T/C (relative increment ratio)” value in series [1] (HCT116 xenografts, dosage of 2.5 mg/kg/day) is given as 19.0%. The “toxicity during the administration” value in series [1] (two B2 treatment groups, 2.5 or 7.5 mg/kg/d i.p., 20 days) is on record as “no significant toxicity was found”.
